target: Dipeptidyl peptidase 4 (Homo sapiens, UniProt P27487); test: In vitro inhibition of Dipeptidylpeptidase IV from Caco-2 (human colon carcinoma) cells.; assay type: cell-based
Sequence (P27487 whole entry): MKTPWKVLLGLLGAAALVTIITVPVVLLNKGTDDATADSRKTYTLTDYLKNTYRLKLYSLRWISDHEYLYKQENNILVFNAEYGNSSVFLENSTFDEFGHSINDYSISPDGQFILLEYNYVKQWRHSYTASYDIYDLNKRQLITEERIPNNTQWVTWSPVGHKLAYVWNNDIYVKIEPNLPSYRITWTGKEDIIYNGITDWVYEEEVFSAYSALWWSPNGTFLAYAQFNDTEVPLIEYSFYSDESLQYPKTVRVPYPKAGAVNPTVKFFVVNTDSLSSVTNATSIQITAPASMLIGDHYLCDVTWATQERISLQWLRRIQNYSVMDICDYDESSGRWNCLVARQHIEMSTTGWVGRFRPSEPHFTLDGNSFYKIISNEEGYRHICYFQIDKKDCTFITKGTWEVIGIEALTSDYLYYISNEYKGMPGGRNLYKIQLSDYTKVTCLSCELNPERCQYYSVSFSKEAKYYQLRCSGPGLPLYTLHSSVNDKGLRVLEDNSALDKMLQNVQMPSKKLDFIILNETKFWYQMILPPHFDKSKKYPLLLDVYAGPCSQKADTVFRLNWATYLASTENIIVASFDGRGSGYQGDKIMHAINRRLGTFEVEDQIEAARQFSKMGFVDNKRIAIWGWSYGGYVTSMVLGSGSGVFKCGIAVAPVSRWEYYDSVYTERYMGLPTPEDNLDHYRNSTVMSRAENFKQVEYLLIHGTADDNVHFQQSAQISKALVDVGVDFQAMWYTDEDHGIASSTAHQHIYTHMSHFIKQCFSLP

Row | IC50 [µM] | Compound
1 | 52.6 | CCOC(=O)CCc1cnc(CN)c2cc(OC)c(OC)cc12
2 | 746 | CCOC(=O)c1cnc(CCN)c2cc(OC)c(OC)cc12
3 | 18 | CCOC(=O)/C=C/c1cnc(CN)c2cc(OC)c(OC)cc12
4 | 1.1 | CCOC(=O)c1cnc(CN)c2c(OC)c(OC)c(OC)cc12
5 | 18 | CCOC(=O)c1cnc(CN)c2cc(OC)c(OC)c(OC)c12
6 | 51.4 | CCCNC(=O)c1cnc(CN)c2cc(OC)c(OC)cc12
7 | 277 | COc1cc2c(C=O)cnc(CN)c2cc1OC
8 | 8.4 | CCCOc1cc2c(CN)ncc(C(=O)OCC)c2cc1OC
9 | 948 | CCOC(=O)c1cnc(CN(C)C)c2cc(OC)c(OC)cc12
10 | 17 | CCOC(=O)Cc1cnc(CN)c2cc(OC)c(OC)cc12
11 | 207 | CCOC(=O)c1cnc(CN)c2ccc(OC)cc12
12 | 3.4 | CCOC(=O)c1cnc(CN)c2cc(OC)c(OC)cc12
13 | 14 | CCOC(=O)c1cnc(CN)c2cc(O)c(OC)cc12
14 | 4.7 | CCOC(=O)c1cnc(CN)c2cc(OC)c(OCC)cc12
15 | 2.4 | CCOC(=O)c1cnc(CN)c2c(OC)ccc(OC)c12
16 | 2.3 | CCOC(=O)Nc1cnc(CN)c2cc(OC)c(OC)cc12
17 | 731 | CCOC(=O)c1cnc(CNC)c2cc(OC)c(OC)cc12
18 | 6.7 | CCOC(=O)c1cnc(CN)c2cc(OCC)c(OC)cc12
19 | 31.8 | COc1cc2c(CO)cnc(CN)c2cc1OC
20 | 170 | COc1cc2c(C(N)=O)cnc(CN)c2cc1OC
21 | 103 | COc1cc2c(C(=O)O)cnc(CN)c2cc1OC

From ChEMBL document CHEMBL1133230, “1-Aminomethylisoquinoline-4-carboxylates as novel dipeptidylpeptidase IV inhibitors” (Bioorg Med Chem Lett, 2000)
